As to `CC1(C)OC(C)(C(OC(=O)c2ccc(Br)cc2)C2CCCCC2)CCC1C(=O)O` (stereo not drawn), the melting point is 111 °C.
`O=[N+]([O-])c1ccc(OCC2CO2)cc1` (stereo not drawn) displayed a melting point of 54 to 55 °C.
In the case of `O=[N+]([O-])c1ncc[nH]1` it was 287 °C; in that of `CSCCC(NC(=O)c1ccccc1)C(=O)O` (racemic), 150 to 154 °C.
In the case of `Nc1cnc(N)c(Br)c1`, the melting point lay in the range of 117 to 122 °C.
Compound `CC(C)NCC(O)COc1cccc2c1C=CC2` (stereo not drawn) showed a melting point of 88.5 °C.
In the case of `CC1(C)CC(=O)C(=NNc2cccc([N+](=O)[O-])c2)C(=O)C1` it was 186 °C; in that of `Brc1cc(Br)c(Br)c(Br)c1`, 99.5 °C; in that of `CC1COc2ccccc2N1C(=O)C(Cl)Cl` (stereo not drawn), 108 °C.
In the case of `COc1ccc(Cl)cc1N=C=S` it was 58 °C; in that of `CSCC[C@H](NC(=O)OCC1c2ccccc2-c2ccccc21)C(=O)O`, 132 to 136 °C.
With `c1cncc(-c2nc3ccccc3[nH]2)c1`, the melting point amounted to 257 °C.
Compound `COc1cc2c(cc1OC)CN1C(=O)C(C)NC(=O)C1C2` (stereo not drawn) gave a melting point of 234 °C.
Take `c1ccc(CC2=NCCN2)cc1`: the melting point worked out at 174 °C.
The value for `N#CC(=Cc1ccc(Cl)cc1)C(N)=O` was 100 °C.
In the case of `Cc1ccc(C2C(C#N)=C(N)Oc3c2c(C(F)(F)F)nn3-c2ccccc2)cc1` (stereo not drawn) it was 205 °C.
In the case of `CCc1ccc2cc3ccccc3cc2c1` it was 152 °C.
In the case of `CCOc1cc(Cl)c(N)c(Cl)c1`, the melting point turned out to be 46 °C.
In the case of `Cn1cnc([N+](=O)[O-])c1Sc1ncnc2nc[nH]c12` it was 244 °C; in that of `CCC(O)CO` (stereo not drawn), -50 °C.
Turning to `O=C(Cl)c1ccccc1COc1ccccc1`, the melting point lay within 49 to 51 °C.
Take `C/C(CCc1oc2ccc([N+](=O)[O-])cc2c1-c1ccc(C)o1)=N/O`: the melting point lay within 160 to 161 °C.
As for `CC1(C)OCC(C(O)C(O)C2COC(C)(C)O2)O1` (stereo not drawn), the melting point is 114 °C.
The value for `O=CC=Cc1ccc([N+](=O)[O-])o1` was 118 °C; that for `O=C(O)c1nc2ccccc2nc1O` was 267 to 268 °C; that for `O=C1OC(=O)c2c(Br)c(Br)c(Br)c(Br)c21` was 275 °C.
The value for `O=c1[nH]cc(Cl)cc1[N+](=O)[O-]` was 234 to 236 °C.
In the case of `Cc1nc(-c2cccc(S(=O)(=O)Cl)c2)no1` it was 67 to 69 °C; in that of `Cc1noc(-c2ccc(C=O)cc2)n1`, 133 to 135 °C.
Turning to `Cc1cc(C)c(CCl)c(C)c1`, the melting point amounted to 40 °C.
The value for `CC(C)(C)c1nnc(NS(=O)(=O)c2ccc(N)cc2)s1` was 222 °C; that for `O=C(O)C=CC(=O)C=CC(=O)O` was 300 °C.
In the case of `CC1(C)C(=O)N(Cl)C(=O)N1Br` it was 164 °C; in that of `FC(F)(Cl)CCl`, -101 °C.
The value for `CCOc1cc(OCC)c(C(=O)CCC(=O)O)cc1OCC` was 150 °C.
For `O=[N+]([O-])c1cc([N+](=O)[O-])c(/C(Cl)=C\c2ccccc2)cc1C(Cl)=Cc1ccccc1`, the melting point came to 146 °C.
The value for `COC=C(C(=O)OC)c1ccccc1Oc1cc(Oc2ccccc2C#N)ncn1` was 116 °C; that for `CC(=O)OC1CCC2(C)C(=CCC3C4CCC(=O)C4(C)CCC32)C1` (stereo not drawn) was 147 °C; that for `CC(=O)/C=C(\C)c1ccc(-c2ccccc2)cc1` was 132 to 134 °C.
The value for `Nc1ccc2c(c1)C(=O)c1ccc(N)cc1C2=O` was 325 °C.
In the case of `NCCCNCCCN` it was -14 °C; in that of `CC(O)C1(O)CC2C3CCC4(C)CC(O)CCC4(C)C3CCC2(C)C1` (stereo not drawn), 220 to 221 °C; in that of `COc1cccc2cc(C(=O)O)oc12`, 219 °C.
`COc1cc(-c2nnc3n2N=C(C(C)C)CS3)cc(OC)c1OC` had a melting point of 157 °C.
The value for `O=C1c2ncccc2-c2cccnc21` was 229 °C; that for `CC(C)Oc1cccc(OC(C)C)c1-c1ccccc1P(C1CCCCC1)C1CCCCC1` was 124 °C.
In the case of `CC(=O)Nc1ccccc1F` it was 78 °C.
The value for `BrCc1ccccc1Br` was 31 °C; that for `C#CCn1ccc2cc(C(=O)OC)ccc21` was 94 to 96 °C; that for `CC(=Cc1ccccc1)C(=O)Cl` was 45 to 46 °C.
For `CN=C(N)c1cc(C(C)(C)C)c(O)c(C(C)(C)C)c1`, the melting point lay within 280 to 281 °C.
In the case of `CC(=O)Oc1ccc(C(c2ccc(OC(C)=O)cc2)c2ccccn2)cc1` it was 134 °C; in that of `CCc1cc(C#N)ccc1N`, 63 °C; in that of `CCCCCCCCCCCCCCCCCCOC(C)=O`, 34.5 °C.
The value for `COc1cc2noc(-c3ccc(C)o3)c2cc1OC` was 146 °C; that for `C1CC2CCC1C2` was 87.5 °C; that for `O=C(O)CN(CC(=O)O)c1ccccc1OCCOc1ccccc1N(CC(=O)O)CC(=O)O` was 177 to 179 °C.
Take `COC(=O)C=Cc1ccccc1`: the melting point stood at 36 °C.
The value for `CCOC(=O)CSc1nc(C(C)(C)C)nn1C(=O)N(C)C` was 53 °C; that for `CCc1cc2cc(OC)c(OC)cc2c(Cc2ccccc2)n1` was 78 °C.
In the case of `N#CC(F)(Cl)Cl` it was -110 °C.
The value for `COc1ccc(N=[N+]([O-])c2ccc(OC)cc2)cc1` was 132 °C; that for `CCOc1ccc(Cc2nccc3cc(OCC)c(OCC)cc23)cc1OCC` was 100 °C; that for `O=C(Nc1ccc(I)cc1)C(C(F)(F)F)C(F)(F)F` was 235 to 237 °C.
Regarding `O=C(O)CC(O)(c1ccccc1)c1ccccc1`, the melting point worked out at 210 °C.
The value for `CCC(=O)Oc1cccc2ccccc12` was 34 to 35 °C; that for `N#CCCn1cc(C(F)(F)F)ccc1=O` was 89 to 90 °C.
`Clc1cc2oc3cc(Cl)c(Cl)c(Cl)c3c2cc1Cl` displayed a melting point of 225 °C.
The value for `CCCCCCNC(=O)COC(=O)c1ccccc1` was 130 °C.
The value for `O=[N+]([O-])c1ccc2[nH]ccc2c1` was 205 to 207 °C.
Take `COC(=O)CC[C@H](N)C(=O)O`: the melting point is 182 °C.
Compound `CC1=C(C(=O)OCC(C)C)C(c2ccccc2)NC(=S)N1` (stereo not drawn) came in with a melting point of 153 °C.
In turn, `CC(=O)c1c(C)c(C)cc(C)c1C` returned a melting point of 75 °C.
In the case of `O=C1c2ccccc2C(=O)c2c([N+](=O)[O-])ccc(O)c21` it was 273 to 275 °C; in that of `CCCCCCCCCCCCCCCCCCC1CCCCC1`, 41.6 °C.
For the compound `COc1ccccc1N1CCN(CCCC(=O)c2ccc(F)cc2)CC1`, the melting point turned out to be 67.5 °C.
In the case of `O=C1CCCCCC1=O` it was -40 °C; in that of `O=C1OC2(c3cc(Cl)c(O)cc3Oc3cc(O)c(Cl)cc32)c2ccccc21`, 280 °C.

As a reminder, the melting point is the temperature, or range, at which the solid turns liquid.

Values taken from a melting point compilation (Tetko et al.).
